Experimental data: patent US20180140679A1, “MODULATION OF AXL RECEPTOR ACTIVITY IN COMBINATION WITH CYTOREDUCTIVE THERAPY” (THE BOARD OF TRUSTEES OF THE LELAND STANFORD JUNIOR …, priority 2016, published 2018)

Assays:
skov3.ip = skov3.ip intraperitoneal ovarian cancer model; assay type: in vivo, mouse xenograft; conditions: MYD1-72 Fc 1 mg/kg daily, doxorubicin 2 mg/kg twice weekly, three weeks
Source text: At this time, several mice were sacrificed at random to ensure engraftment of diffuse metastatic disease, a hallmark of the human condition. […] After three weeks of treatment, mice were sacrificed and tumor burden was quantified both by counting the number of visible lesions, as well as excising and weighing all diseased tissue.
(§1) Treatment was initiated four days post-surgery.

[1] = test system: LM-P orthotopic pancreatic cancer; experiment: LM-P orthotopic pancreatic cancer model; conditions: immunohistochemistry
Experimental: LMP cells derived from the KRAS/p53 metastatic mouse model were implanted subcutaneously into the flanks of mice and allowed to grow until they reached ˜500 mm^3 in size.
To establish orthotopic tumors, mice harboring subcutaneous tumors were sacrificed and tumors were isolated and cut into small fragments. Laparotomies were then performed and a tumor fragment was secured to the tail of the pancreas.
All procedures involving animals and their care and use were approved by the Institutional Animal Care and Usage Committee of Stanford University. For all in vivo studies, six week old, female nude (nu/nu) mice (Jackson Laboratory, Bar Harbor, Me.) were used. In all studies, animals displaying signs of morbidity were removed from the study immediately. […] Treatment was initiated four days post-inoculation for both studies. […] BGB324 (Selleckchem LLC, Houston, Tex.) and Foretinib (MedChem, Monmouth Junction, N.J.). Small molecules were administered twice daily via oral gavage. […] The orthotropic LM-P pancreatic adenocarcinoma model (a gift from Dr. Edgar Engleman at Stanford University, Stanford, Calif.) was established as previously described. Briefly, 1×10^6 cells were injected subcutaneously into the flanks of nude mice and grown for 2-3 weeks until they reached 500 mm^3. […]

[2] = test system: phosphorylation of Axl, Mer, Tyro3, and downstream Akt signaling in OVCAR8 cells; experiment: Western blot of TAM receptor and Akt phosphorylation in OVCAR8 cells; assay type: cell-based, human
Source text: (§2) Cell lysates subjected to sodium dodecyl sulfate polyacrylamide gel electrophoresis followed by transfer to nitrocellulose membrane. The membranes were then probed with primary antibodies against total Axl (AF154, R&D Systems, INC., Minneapolis, Minn.), phospho-Axl (T702; #5724, CST, Danvers, Mass.), total Akt (#4691 CST, Danvers, Mass.), phosphor-Akt (#4060, CST, Danvers, Mass.), anti-MERTK (#ab52968, Abcam, Cambridge, Mass.), phospho-MERTK (#ab14921 Abcam, Cambridge, Mass.), anti-Tyro3 (#5585, CST, Danvers, Mass.), phospho-Tyro3 (#orb186274, Biorbyt LLC, Berkely, Calif.), Bcl-2 Family Antibody Sampler Kit (#9934, CST, Danvers, Mass.), anti-Chk2 (#sc-5278, Santa Cruz Biotech, INC., Santa Cruz, Calif.), anti-XRCC1 (#2735, CST, Danvers, Mass.), anti-γH2AX (Merck Millipore #05636, Darmstadt, Germany), anti-phospho-ATM (#ab81292, Abcam, Cambridge, Mass.), anti-ATM (#ab78, Abcam, Cambridge, Mass.), anti phospho-ATR (#2853, CST, Danvers, Mass.), anti-ATR (#2790, CST, Danvers, Mass.), anti-Phospho Chk1 (#12302, CST, Danvers, Mass.), anti-Phospho Chk2 (#2197, CST, Danvers, Mass.) and anti-RPA32 (#2208, CST, Danvers, Mass.) at 4° C. overnight. The blots were then washed and probed with HRP conjugated anti-goat (#sc-2020, Santa Cruz Biotech, INC., Santa Cruz, Calif.), or HRP conjugated anti-rabbit (#A16110, Thermo Fisher Scientific, Walthan, Mass.) as appropriate. The blots were developed with Bio-Rad Western C developing reagent (#170-5060 Bio-Rad, Hercules, Calif.) and visualized with Chemidoc digital imager (#1708280, Bio-Rad, Hercules, Calif.).

4T1 luciferase cells = assay type: in vivo; conditions: MYD1-72 Fc 1 mg/kg daily, TKIs 12.5 mg/kg twice daily; for reduction in lung metastases compared to vehicle treated mice: ex vivo bioluminescent imaging; for size of primary tumors: three weeks, vs control
Source text: In this model, cells orthotopically implanted in the mammary fat pad generate primary masses that metastasize to the lungs.
Comparison of MYD1-72 Fc with clinical Axl. TKIs There are currently no FDA approved drugs targeting Axl, though several small molecule kinase inhibitors are undergoing clinical trials. BerGenBio's BGB324 (previously Rigel's R428) is the most advanced of these compounds, and the first to be developed prospectively as an Axl inhibitor. […] Furthermore, since TKI's and biologics are fundamentally very different, as are their mechanisms of action, a direct comparison would provide valuable insights into the potential of distinct therapeutic intervention strategies. […] Cells were implanted orthotopically in the mammary fat pad, and primary tumors were allowed to establish prior to treatment. […] This dose for the TKIs was chosen as significant activity has been previously reported at equivalent concentrations.
as §1

[3] = test system: Axl and FLT3 phosphorylation in AML cells; experiment: Western blot of Axl and FLT3 phosphorylation in AML cells; assay type: cell-based, human
Source text: as §2

patients = conditions: recent phase II trial; cited from earlier work
mouse Gas6 = target: T1, mouse Gas6 (mouse, UniProt Q61592 115-674, limits assumed); experiment: KinExA equilibrium titration in solution, apparent Kd of the dimeric Fc fusion
T1 construct: Recombinant in KinExA (detected through a 6xHIS tag); also called mGas6
T1 sequence (looked up): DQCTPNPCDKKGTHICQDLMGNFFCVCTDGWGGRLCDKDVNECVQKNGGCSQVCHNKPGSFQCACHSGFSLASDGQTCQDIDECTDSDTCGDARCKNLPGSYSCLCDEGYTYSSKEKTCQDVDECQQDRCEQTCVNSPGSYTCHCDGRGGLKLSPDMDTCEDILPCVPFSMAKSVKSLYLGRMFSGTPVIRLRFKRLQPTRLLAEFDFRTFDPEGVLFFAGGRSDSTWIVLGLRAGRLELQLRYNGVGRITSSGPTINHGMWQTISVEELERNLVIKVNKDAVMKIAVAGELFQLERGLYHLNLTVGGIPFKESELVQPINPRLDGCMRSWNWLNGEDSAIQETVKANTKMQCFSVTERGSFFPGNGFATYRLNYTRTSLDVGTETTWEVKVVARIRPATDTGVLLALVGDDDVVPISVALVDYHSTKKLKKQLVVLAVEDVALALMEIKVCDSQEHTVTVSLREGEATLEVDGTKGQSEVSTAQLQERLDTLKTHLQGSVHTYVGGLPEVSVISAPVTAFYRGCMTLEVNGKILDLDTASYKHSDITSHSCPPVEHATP

In the case of `COc1cccc2c1C(=O)c1c(O)c3c(c(O)c1C2=O)C[C@@](O)(C(=O)CO)C[C@@H]3O[C@H]1C[C@H](N)[C@H](O)[C@H](C)O1` [doxorubicin, reference compound], the “decrease in tumor burden (by weight) vs controls” value (skov3.ip) is reported as 91%.

With `Nc1ccn([C@@H]2O[C@H](CO)[C@@H](O)C2(F)F)c(=O)n1` [Gemcitabine, reference compound] the “Ki67 proliferation in primary tumor” value [1] was “small, albeit significant decrease in proliferation”.

With `Nc1nc(Nc2ccc3c(c2)CC[C@@H](N2CCCC2)CC3)nn1-c1cc2c(nn1)-c1ccccc1CCC2` [BGB324, reference compound] the “pAxl and pAkt levels” value [2] was “short-term inhibition of pAxl but increased pAxl levels at later time points”, the “reduction in lung metastases compared to vehicle treated mice” value (4T1 luciferase cells) was 10% and the “size of primary tumors” value (4T1 luciferase cells) was “showed little effects”.

With “wildtype Axl Fc: wild-type Axl decoy receptor as Fc fusion” the “Axl and FLT3 phosphorylation” value [3] was “inhibited Axl and FLT3 phosphorylation”.

For `COc1cc2c(Oc3ccc(NC(=O)C4(C(=O)Nc5ccc(F)cc5)CC4)cc3F)ccnc2cc1OCCCN1CCOCC1` [Foretinib], the “pAxl and pAkt levels” value [2] was “indiscriminately inhibited all TAM receptors”, the “pMer and pTyro3 levels” value [2] was “indiscriminately inhibited all TAM receptors” and the “reduction in lung metastases compared to vehicle treated mice” value (4T1 luciferase cells) was 55%. For the same molecule, the “size of primary tumors” value (4T1 luciferase cells) was “significantly reduced the size of primary tumors”, the clinical efficacy (patients) was “failed to demonstrate efficacy” and the “patients with treatment-related adverse events” value (patients) was 91%.

B1: MYD1-Fc (Fc fusion)
chain: APRGTQAEESPFVSNPGNITGARGLTGTLRCQLQVQGEPPEVHWLRDGQILELADSTQTQVPLGEDEQGDWIVASQLRITSLQLSDTGQYQCLVFLGHQTFVSQPGYVRLEGLPYFLEEPEDRTVAANTPFNLSCQAQGPPEPVDLLWLQDAVPLATAPGHGPQRSLHVPGLNKTSSFSCEAHNAKGVTTSRTATITVLPQQPRNLHLVSRQPTELEVAWTPGLSGIYPLTHCTLQAVLSNDGMGIQAGEPDPPEEPLTSQASVPPHQLRLGSLHPHTPYHIRVACTSSQGPSSWTHWLPVETPEGVPLGPPENISATRNGSQAFVHWQEPRAPLQGTLLGYRLAYQGQDTPEVLMDIGLRQEVTLELQGDGSVSNLTVCVAAYTAAGDGPWSLPVPLEAWRPGQAQPVHQLVKEPSTPAFS
notes: Dimeric Fc fusion made in HEK293; MYD1 mutations deduced as MYD1-72 minus A72V; not shown: Fc domain
Molecule B1 has a Kd (mouse Gas6) of 1.1 pM.

B2: MYD1-72 Fc (Fc fusion)
chain: APRGTQAEESPFVSNPGNITGARGLTGTLRCQLQVQGEPPEVHWLRDGQILELVDSTQTQVPLGEDEQGDWIVASQLRITSLQLSDTGQYQCLVFLGHQTFVSQPGYVRLEGLPYFLEEPEDRTVAANTPFNLSCQAQGPPEPVDLLWLQDAVPLATAPGHGPQRSLHVPGLNKTSSFSCEAHNAKGVTTSRTATITVLPQQPRNLHLVSRQPTELEVAWTPGLSGIYPLTHCTLQAVLSNDGMGIQAGEPDPPEEPLTSQASVPPHQLRLGSLHPHTPYHIRVACTSSQGPSSWTHWLPVETPEGVPLGPPENISATRNGSQAFVHWQEPRAPLQGTLLGYRLAYQGQDTPEVLMDIGLRQEVTLELQGDGSVSNLTVCVAAYTAAGDGPWSLPVPLEAWRPGQAQPVHQLVKEPSTPAFS
notes: Dimeric Fc fusion made in HEK293; also called MYD-72 Fc; second generation Axl decoy receptor; not shown: Fc domain
Work on B2 yielded a Kd (mouse Gas6) of 0.14 pM.
